One assay has as its target 5-HT2B (Homo sapiens (Human), UniProt P41595). The assay can be described thus: 5-HT2B antagonist assay (DiscoveRx Calcium NWPLUS, FLIPR). The class given is cell-based. The method, then: 5-HT2A and 5-HT2B Agonist and Antagonist Assays
The DiscoveRx Calcium NWPLUS Assay was used for detection of changes in intracellular calcium as signaled by an increase of dye fluorescence in cells expressing 5-HT2A receptors. Signal was measured on a fluorescent plate reader equipped with fluidic handling capable of detecting rapid changes in fluorescence upon compound stimulation.
To conduct the assay, cell lines were expanded from freezer stocks according to standard procedures. Cells (10,000cells/well) were seeded in a total volume of 50 μL ([…]) into black-walled, clear-bottom, Poly-D-lysine coated 384-well microplates and incubated at 37-C for the appropriate time prior to testing. DMSO concentration for all readouts was <0.2%. […]
Compound agonist activity was measured on a FLIPR Tetra. Calcium mobilization was monitored for 2 minutes with a 5 second baseline read. FLIPR read-Area under the curve was calculated for the two minute read. Compound activity was analyzed using CBIS data analysis suite (ChemInnovation, CA). Percentage activity was calculated as 100%×(mean RFU of test sample−mean RFU of vehicle control)/(mean MAX RFU control ligand −mean RFU of vehicle control). For antagonist mode assays, percentage inhibition was calculated as 100%×(1−(mean RFU of test sample−mean RFU of vehicle control)/(mean RFU of EC80 control−mean RFU of vehicle control)). […]

The target in assay [1] is T1, SERT (Rattus norvegicus (Rat), UniProt P31652). The assay can be described thus: In vitro rat synaptosome serotonin uptake inhibition assay (Examples 9, 58). The class given is biochemical. The settings on record: rat synaptosomes. An excerpt:
FIG. 7A is a graph showing results from an in vitro rat synaptosome serotonin uptake inhibition assay. […] Details and procedural information for this assay are described in Example 9. The x-axis is the log [dose] concentration measured in molar and the y-axis is the [^3H]-labeled 5-HT reuptake measured in percent.
FIG. 176 is a graph showing results from an in vitro rat synaptosome serotonin uptake inhibition assay. […] Details and procedural information for this assay are described in Example 58. The x-axis the log [dose] concentration is measured in Molar units and the y-axis is the [^3H]-labeled 5-HT reuptake measured in percent of maximum produced by the comparison releaser.

In assay [2] the target is T1, SERT. The assay can be described thus: In vitro rat synaptosome serotonin release (efflux) assay (Examples 9, 58). The class given is biochemical. The settings on record: rat synaptosomes. The source says: FIG. 7B is a graph showing results from an in vitro rat synaptosome serotonin release assay. […] Details and procedural information for this assay are described in Example 9. The x-axis is the log [dose] concentration measured in molar and the y-axis is the [^3H]-labeled 5-HT release measured in percent.
FIG. 177 is a graph showing results from an in vitro rat synaptosome serotonin release assay. […] Details and procedural information for this assay are described in Example 58. The x-axis the log [dose] concentration measured in molar and the y-axis is the [^3H]-labeled 5-HT release measured in percent.

Chain of 5-HT2B (P41595 whole entry): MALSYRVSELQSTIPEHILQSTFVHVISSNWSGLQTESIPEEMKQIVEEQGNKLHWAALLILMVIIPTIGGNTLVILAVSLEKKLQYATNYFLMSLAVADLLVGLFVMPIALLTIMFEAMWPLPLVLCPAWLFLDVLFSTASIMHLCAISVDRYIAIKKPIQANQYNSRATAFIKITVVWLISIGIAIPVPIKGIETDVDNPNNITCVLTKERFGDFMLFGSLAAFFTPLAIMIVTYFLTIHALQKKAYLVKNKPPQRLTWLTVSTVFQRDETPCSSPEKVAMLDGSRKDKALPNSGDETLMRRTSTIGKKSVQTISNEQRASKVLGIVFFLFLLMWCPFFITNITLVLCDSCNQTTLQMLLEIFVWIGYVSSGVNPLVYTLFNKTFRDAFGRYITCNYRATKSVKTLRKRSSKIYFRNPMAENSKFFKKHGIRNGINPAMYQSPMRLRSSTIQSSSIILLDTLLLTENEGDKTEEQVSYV

As usually defined, the IC50 is the midpoint of a concentration-inhibition curve. With `CCC(Cc1ccc2ccoc2c1)NC` (racemic) [RS-6-MBPB], the IC50 at 5-HT2B was 3.08 µM. Moreover, the “[3H]-labeled 5-HT reuptake (serotonin uptake inhibition)” value on SERT [1] is “rapidly increases extracellular serotonin by inhibiting reuptake”. In addition, the “[3H]-labeled 5-HT release” value at SERT [2] is on record as “rapidly increases extracellular serotonin by stimulating release”.

The values above are taken from US20250019357A1, “[…] MORPHIC FORMS AND MIXTURES FOR THE TREATMENT OF MENTAL DISORDERS OR MENTAL ENHANCEMENT” (TACTOGEN INC, priority 2021, published 2025).
